Test results as given in US20240103006A1 (Roche Diagnostics Operations, Inc., priority 2021, published 2024).

Key:
[1] = solvent as listed per probe; cited from earlier work
[2] = UV-vis spectral properties / extinction coefficients in aqueous buffer; assay type: physicochemical; conditions: merocyanine dyes
Procedure: Absorption spectra were recorded on a Cary 50 UV-vis spectrometer from Varian. All measurements were performed in 1 cm UV-vis disposable cuvettes (BRAND semi-micro) and air-equilibrated solutions at 25±0.1° C. A total assay volume of 1.0 mL was used for each measurement. UV-vis scan spectra were recorded using following parameters: average time 0.05 s; data interval 1 nm; scan rate 1200 nm/min; with base line correction.
Stock solutions of assayed compounds (2-5 mM) were prepared in H2O-DMSO (1:1), stored at −20° C., and diluted to 1.0 mM with buffer before use. The L-Cys stock solution (20.0 mM) was freshly prepared in buffer before the measurements. […]
For a measurement, 1000 μL of buffer and 1-50 μL of probe (1.0 mM) were mixed, and then transferred to a cuvette. Absorbance spectra (250-800 nm) were measured against a blank of the buffer. At least six concentrations of each compound were used to calculate extinction coefficients from the slope of probe concentration vs absorbance plots, using MS Excel software (Microsoft).

SMILES | Spectra: Probe [1] [nm] | Spectra: With Cys [1] | other results
C=CC(=O)OC1=C(/C=C/C2=[N+](CCC)c3ccccc3C2(C)C)CCC/C1=C\C=C1\N(CCC)c2ccccc2C1(C)C | 775 | 515 nm | 
C=CC(=O)Oc1ccc2c(c1)Oc1cc(OC(=O)C=C)ccc1C21OC(=O)c2ccccc21 |  | With Cys 490 nm | 
C=CC(=O)Oc1ccc(/C=C/c2sc3ccccc3[n+]2CC)c2cccnc12 | 387 | 566 nm | 
C=CC(=O)Oc1ccc2c(c1)OC1CCCC(=O)C1=C2 (centres unmarked) |  | 398 nm | 
C=CC(=O)Oc1ccc2c(c1)OC1=C(/C=C/C3=[N+](C)c4ccccc4C3(C)C)CCCC1=C2 | 582 | 674 nm | 
C=CC(=O)Oc1ccc(/C=C/c2cc[n+](C)cc2)cc1 | 335 | 372 nm | 
C=CC(=O)Oc1ccc(/C=C/C2=CC(=C(C#N)C#N)c3ccccc3O2)cc1 | 381 | 557 nm | 
C=CC(=O)Oc1ccc2c(c1)oc(=O)c1c(=O)oc3ccccc3c12 | 350 | 445 nm | 
C=CC(=O)Oc1ccc2cc(/C=C/C3=[N+](C)c4c(ccc5ccccc45)C3(C)C)ccc2c1 |  | With Cys 460 nm | 
C=CC(=O)Oc1ccc2c(c1)Oc1c(ccc3oc(=O)c(C(=O)OCC)cc13)C21OC(=O)c2ccccc21 (centres unmarked) | 332 | 450 nm | 
C=CC(=O)Oc1ccc2cc(/C=C/C3=[N+](C)c4ccccc4C3(C)C)ccc2c1 | 409 | 448 nm | 
C=CC(=O)Oc1ccc(/C=C/C(=O)/C=C(O)/C=C/c2ccc(OC(=O)C=C)c(OC)c2)cc1OC | 400 | 427 nm | 
C=CC(=O)Oc1cccc2c1C(=O)N(Cc1cccc[n+]1CC)C2=O | 360 | 400 nm | 
C=CC(=O)Oc1ccc2c(c1)OC1=C(/C=C/C3CC(=C(C#N)C#N)c4ccccc4O3)CCCC1=C2 (centres unmarked) | 550 | 600 nm | 
CC1(C)C(/C=C/c2ccc(O)cc2)=[N+](CCCCS(=O)(=O)[O-])c2ccccc21 [LZ04, reference compound] |  |  | ε at λmax ([2]; 25 mM HEPES pH 7.4, 1-24 μM): 36.6 mM⁻¹ cm⁻¹; λmax ([2]; 25 mM HEPES pH 7.4, 1-24 μM): 527 nm; ε at λmax ([2]; same buffer at pH 8.0): 45.6 mM⁻¹ cm⁻¹; λmax ([2]; same buffer at pH 8.0): 527 nm
C[N+]1=C(/C=C/c2ccc(O)cc2)C(C)(C)c2ccccc21.[I-] [LZ06, reference compound] |  |  | ε at λmax ([2]; 25 mM HEPES pH 7.4, 1-24 μM): 27 to 37 mM⁻¹ cm⁻¹; λmax ([2]; 25 mM HEPES pH 7.4, 1-24 μM): 520 nm; ε at λmax ([2]; same buffer at pH 8.0): 37 to 53 mM⁻¹ cm⁻¹; λmax ([2]; same buffer at pH 8.0): 520 nm
Cc1cc(/C=C/C2=[N+](CCCCS(=O)(=O)[O-])c3ccccc3C2(C)C)cc(C)c1O [MF51] |  |  | ε at λmax ([2]; 25 mM HEPES pH 7.4, 1-24 μM): 73.9 mM⁻¹ cm⁻¹; λmax ([2]; 25 mM HEPES pH 7.4, 1-24 μM): 550 nm
